Reference: ChEMBL document CHEMBL1158587, “Chloramultiols A-F, lindenane-type sesquiterpenoid dimers from Chloranthus multistachys” (J Nat Prod, 2010)

What was measured:
Type in all cases: functional, cell-based
A549 = test: Cytotoxicity against human A549 cells by MTT assay
HL-60 = test: Cytotoxicity against human HL60 cells by MTT assay
PANC-1 = test: Cytotoxicity against human PANC1 cells by MTT assay
SMMC-7721 = test: Cytotoxicity against human SMMC7721 cells by MTT assay
SK-BR-3 = test: Cytotoxicity against human SKBR3 cells by MTT assay

Measured: IC50

CC1=C2C3=C4[C@](C)([C@@H]5C[C@@H]5[C@@]4(O)C[C@@H]4[C@]35OC(=O)C3=C5C[C@H]5[C@](O)(COC(=O)/C(C)=C/COC(=O)CCC(=O)OC3)[C@H]3C[C@H]3[C@]45C)[C@@H](O)[C@@]2(O)OC1=O [CHLORAMULTILIDE C]
> 10 µM: all assays above

C/C=C(\C)C(=O)OC[C@]1(O)[C@H]2C[C@H]2[C@]2(C)[C@@H]3C[C@@]4(O)C5=C(C6=C(C)C(=O)O[C@]6(O)[C@H](O)[C@@]5(C)[C@@H]5C[C@@H]54)[C@@]34OC(=O)C(CO)=C4C[C@@H]12 [CHLORAMULTILIDE D]
> 10 µM: all assays above

COC(=O)/C(C)=C1\C(=O)[C@H](O)[C@]2(C)C3=C([C@H]4C[C@H]42)[C@H](O)[C@@H]2[C@]4(OC(=O)C5=C4C[C@H]4[C@](O)(COC(=O)/C(C)=C/COC(=O)CCC(=O)OC5)[C@H]5C[C@H]5[C@]24C)[C@H]31 [CHLORAMULTIOL A]
> 10 µM: all assays above

CC1=C2C3=C4[C@](C)([C@@H]5C[C@@H]5[C@@]4(O)C[C@@H]4[C@]35OC(=O)C(CO)=C5C[C@H]3[C@](O)(CO)[C@H]5C[C@H]5[C@]43C)[C@@H](O)[C@@]2(O)OC1=O [CHLORAMULTIOL B]
> 10 µM: all assays above

C/C=C(\C)C(=O)OC[C@]1(O)[C@H]2C[C@H]2[C@]2(C)[C@@H]3C[C@@]4(O)C5=C(C6=C(C)C(=O)O[C@]6(OC)[C@H](O)[C@@]5(C)[C@@H]5C[C@@H]54)[C@@]34OC(=O)C(CO)=C4C[C@@H]12 [CHLORAMULTIOL C]
> 10 µM: all assays above

C/C=C(\C)C(=O)OC[C@]1(O)[C@H]2C[C@H]2[C@]2(C)[C@@H]3C[C@@]4(O)C5=C(C6=C(C)C(=O)O[C@]6(O)C(=O)[C@@]5(C)[C@@H]5C[C@@H]54)[C@@]34OC(=O)C(CO)=C4C[C@@H]12 [CHLORAMULTIOL D]
> 10 µM: all assays above

CC(=O)OC[C@@H]1[C@H]2C[C@H]2[C@]2(C)[C@@H]3C[C@@]4(O)C5=C(C6=C(C)C(=O)O[C@]6(O)[C@H](O)[C@@]5(C)[C@@H]5C[C@@H]54)[C@@]34OC(=O)C(CO)=C4C[C@@H]12 [CHLORAMULTIOL E]
> 10 µM: all assays above

CO[C@]12OC(=O)C(C)=C1C1=C3C(=C[C@@H]4[C@]15OC(=O)C1=C5C[C@H]5[C@](O)(COC(=O)/C(C)=C/COC(=O)CCC(=O)OC1)[C@H]1C[C@H]1[C@]45C)[C@H]1C[C@H]1[C@]3(C)[C@H]2O [CHLORAMULTIOL F]
> 10 µM: all assays above

COC(=O)[C@]1(C)CC2=C3C=C(C(=O)[C@H](O)[C@@]3(C)[C@@H]3C[C@H]23)[C@](C)(C(=O)OC)CC2=C3C=C1C(=O)[C@H](O)[C@@]3(C)[C@@H]1C[C@H]21 [Cycloshizukaol A]
> 10 µM: all assays above

C/C=C(\C)C(=O)OCC1=C2C[C@H]3[C@H](O)[C@H]4C[C@H]4[C@]3(C)[C@@H]3C[C@@]4(O)C5=C(/C(=C(/C)C(=O)OC)C(=O)[C@H](O)[C@@]5(C)[C@@H]5C[C@@H]54)[C@]23OC1=O [SHIZUKAOL C]
> 10 µM: all assays above

COC(=O)/C(C)=C1/C(=O)[C@H](O)[C@]2(C)C3=C1[C@]14OC(=O)C(COC(C)=O)=C1C[C@H]1C[C@H]5C[C@H]5[C@]1(C)[C@@H]4C[C@]3(O)[C@H]1C[C@H]12 [SHIZUKAOL D]
> 10 µM: all assays above

CC1=C2C3=C4[C@@](C)(C(=O)[C@@]2(O)OC1=O)[C@@H]1C[C@@H]1[C@@]4(O)C[C@@H]1[C@]32OC(=O)C3=C2C[C@H]2[C@](O)(COC(=O)/C(C)=C/COC(=O)CCC(=O)OC3)[C@H]3C[C@H]3[C@]12C [SPICACHLORANTIN B]
> 10 µM: all assays above
